Here are results for 36 molecules from ChEMBL document CHEMBL5365437, “Cannabinoformins: Designing Biguanide-Embedded, Orally Available, Peripherally Selective Cannabinoid-1 Receptor Antagonists for Metabolic Syndrome Disorders” (J Med Chem, 2023).

The target in assay [1] is T1, Cannabinoid receptor 1 (Mus musculus, UniProt P47746). The assay is described as follows: Displacement of [3H][…] from CB1 receptor in mouse brain plasma membrane by radioligand displacement analysis. Type of assay: cell membranes. For orientation: Displacement assays read how much labelled ligand stays bound in the presence of the test substance.
T1 sequence (P47746 whole entry): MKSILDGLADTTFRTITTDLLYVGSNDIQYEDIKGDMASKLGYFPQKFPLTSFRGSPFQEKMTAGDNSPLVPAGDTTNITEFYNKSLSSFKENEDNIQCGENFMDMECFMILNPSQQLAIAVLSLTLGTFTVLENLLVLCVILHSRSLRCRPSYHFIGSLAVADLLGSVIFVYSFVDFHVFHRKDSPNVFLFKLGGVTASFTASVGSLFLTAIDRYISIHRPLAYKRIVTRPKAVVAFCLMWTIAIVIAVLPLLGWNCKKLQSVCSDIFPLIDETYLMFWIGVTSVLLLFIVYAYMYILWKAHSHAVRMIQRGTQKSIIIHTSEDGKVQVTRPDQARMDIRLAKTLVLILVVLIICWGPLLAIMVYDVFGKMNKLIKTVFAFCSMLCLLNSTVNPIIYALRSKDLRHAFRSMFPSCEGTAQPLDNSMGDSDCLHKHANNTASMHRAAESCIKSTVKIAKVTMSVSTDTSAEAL
Assay [2] deals with T1, Cannabinoid receptor 1. Put plainly: Antagonist activity at CB1 receptor in mouse brain membrane assessed as inhibition of […]-induced GTPgammaS binding by [35S]GTPgammaS binding analysis. The class given is functional, cell membranes. Background: Binding of GTPγS marks nucleotide exchange on a G protein.
Assay [3] deals with T2, AMP-activated protein kinase (AMPK) alpha-1/beta-1/gamma-1 (Homo sapiens) (UniProt P54619+Q9Y478+Q13131). Put plainly: Activation of recombinant AMPK alpha1/beta1/gamma1 (unknown origin) at 1 uM relative to control. The class given is protein-complex assay. The conditions noted are these: filed as activator.
T2 sequence (P54619 whole entry): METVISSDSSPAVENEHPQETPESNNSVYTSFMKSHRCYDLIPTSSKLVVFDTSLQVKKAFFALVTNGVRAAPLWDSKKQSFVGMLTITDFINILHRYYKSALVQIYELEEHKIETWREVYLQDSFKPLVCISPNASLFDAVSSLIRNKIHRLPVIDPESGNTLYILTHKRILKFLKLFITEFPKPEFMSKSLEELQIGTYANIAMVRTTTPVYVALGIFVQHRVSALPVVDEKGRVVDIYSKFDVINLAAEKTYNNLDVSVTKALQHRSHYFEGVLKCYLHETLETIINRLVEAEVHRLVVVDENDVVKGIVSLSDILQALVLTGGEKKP
T2 sequence (Q13131 whole entry partner): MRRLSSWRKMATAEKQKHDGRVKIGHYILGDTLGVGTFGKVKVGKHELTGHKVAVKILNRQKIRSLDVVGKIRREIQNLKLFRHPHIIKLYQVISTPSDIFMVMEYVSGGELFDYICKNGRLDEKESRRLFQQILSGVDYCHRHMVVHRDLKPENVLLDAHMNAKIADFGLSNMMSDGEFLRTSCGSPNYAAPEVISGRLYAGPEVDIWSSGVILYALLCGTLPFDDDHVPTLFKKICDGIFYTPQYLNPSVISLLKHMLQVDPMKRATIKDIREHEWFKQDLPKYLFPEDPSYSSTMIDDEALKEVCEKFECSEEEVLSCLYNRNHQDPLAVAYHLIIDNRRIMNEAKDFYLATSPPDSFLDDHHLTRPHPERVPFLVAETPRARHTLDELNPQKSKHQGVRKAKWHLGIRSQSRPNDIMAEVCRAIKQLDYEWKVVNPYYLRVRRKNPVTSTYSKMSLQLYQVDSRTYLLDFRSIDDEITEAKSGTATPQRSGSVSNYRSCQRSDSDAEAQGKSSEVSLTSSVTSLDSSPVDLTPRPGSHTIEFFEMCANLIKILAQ
T2 sequence (Q9Y478 2-270 partner limits assumed): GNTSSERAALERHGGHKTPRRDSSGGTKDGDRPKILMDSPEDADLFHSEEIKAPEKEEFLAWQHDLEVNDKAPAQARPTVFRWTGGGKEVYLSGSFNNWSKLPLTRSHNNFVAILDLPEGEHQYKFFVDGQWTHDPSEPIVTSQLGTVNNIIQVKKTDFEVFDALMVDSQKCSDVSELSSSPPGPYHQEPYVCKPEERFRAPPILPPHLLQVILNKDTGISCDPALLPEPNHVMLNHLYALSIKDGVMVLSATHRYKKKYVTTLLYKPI
Assay [4] addresses T2, AMP-activated protein kinase (AMPK) alpha-1/beta-1/gamma-1 (Homo sapiens). Put plainly: Activation of recombinant AMPK alpha1/beta1/gamma1 (unknown origin) at 10 uM relative to control. The conditions noted are these: filed as activator. Type of assay: protein-complex assay.

Take `N/C(=N\C(=N\S(=O)(=O)c1ccc(I)cc1)N1CC(c2ccccc2)C(c2ccc(Cl)cc2)=N1)NC(=O)c1ccccc1` (stereo not given): the affinity at Cannabinoid receptor 1 [1] corresponds to a Ki of 5.5 nM. The IC50 – broadly, the concentration that gives 50% inhibition – on Cannabinoid receptor 1 [2] is 14 nM. The Activity in assay [3] came out at 96%.
Regarding `N/C(=N\C(=N\S(=O)(=O)c1ccc(Cl)cc1)N1CC(c2ccccc2)C(c2ccc(Cl)cc2)=N1)N1CCCCC1` (stereo not given), the Activity in assay [4] was determined as 166%.
Still for that read-out and setting: the same measure for `C=CCN(CC=C)/C(N)=N/C(=N/S(=O)(=O)c1ccc(Cl)cc1)N1CC(c2ccccc2)C(c2ccc(Cl)cc2)=N1` (stereo not given): 157%.
Consider `CN=C(NS(=O)(=O)c1ccc(Cl)cc1)N1C[C@H](c2ccccc2)C(c2ccc(Cl)cc2)=N1` [IBIPINABANT], for which the inhibition constant Ki – broadly, the equilibrium dissociation constant of an inhibitor or competing ligand from its target – at Cannabinoid receptor 1 [1] came out at 8.1 nM. That is a single-digit nanomolar value.
Consider `CC(=O)N/C(N)=N/C(=N/S(=O)(=O)c1ccc(OC(F)(F)F)cc1)N1CC(c2ccccc2)C(c2ccc(Cl)cc2)=N1` (stereo not given), for which, on Cannabinoid receptor 1 [2], the IC50 is 3.2 nM. Further, the Activity in assay [3] is 125%.
Turning to `CC(=O)N/C(N)=N/C(=N/S(=O)(=O)c1ccc(C#N)cc1)N1CC(c2ccccc2)C(c2ccc(Cl)cc2)=N1` (stereo not given), the Ki on Cannabinoid receptor 1 [1] was determined as 0.4 nM. In addition, the concentration for half-maximal inhibition (IC50) on Cannabinoid receptor 1 [2] is 5.8 nM. Also, the Activity in assay [3] was found to be 91%.
For the molecule `N/C(=N\C(=N\S(=O)(=O)c1ccc(Cl)cc1)N1CC(c2ccccc2)C(c2ccc(Cl)cc2)=N1)NC12C[C@H]3C[C@@H](C1)C[C@@H](C2)C3` (stereo not given in full), on Cannabinoid receptor 1 [1], the inhibition constant Ki was more than 1000 nM.
For the molecule `CC(=O)N/C(N)=N/C(=N/S(=O)(=O)c1ccc(Cl)cc1)N1CC(c2ccccc2)C(c2ccc(Cl)cc2)=N1` (stereo not given), the affinity at Cannabinoid receptor 1 [1] corresponds to a Ki of 2.9 nM. The IC50 on Cannabinoid receptor 1 [2] was 3.1 nM. For the same molecule, the Activity in assay [3] is 142%.
As for `N/C(=N\C(=N\S(=O)(=O)c1ccc(Cl)cc1)N1CC(c2ccccc2)C(c2ccc(Cl)cc2)=N1)NCCc1ccccc1` (stereo not given), the Activity in assay [4] is 136%.
As to `CC(=O)N/C(N)=N/C(=N/S(=O)(=O)c1ccc2ccccc2c1)N1C[C@@H](c2ccccc2)C(c2ccc(Cl)cc2)=N1`, the affinity at Cannabinoid receptor 1 [1] corresponds to a Ki of 78 nM.
Turning to `CN/C(N)=N/C(=N/S(=O)(=O)c1ccc(Cl)cc1)N1CC(c2ccccc2)C(c2ccc(Cl)cc2)=N1` (stereo not given), in assay [4], the Activity worked out at 139%.
On to `CC(=O)N/C(N)=N/C(=N/S(=O)(=O)c1ccc2ccccc2c1)N1CC(c2ccccc2)C(c2ccc(Cl)cc2)=N1` (stereo not given), for which the inhibition constant (Ki) on Cannabinoid receptor 1 [1] was determined as 16 nM. In addition, the IC50 on Cannabinoid receptor 1 [2] was found to be 6.1 nM. For the same molecule, the Activity in assay [3] was 117%.
Consider `CCCCN(CC)/C(N)=N/C(=N/S(=O)(=O)c1ccc(Cl)cc1)N1CC(c2ccccc2)C(c2ccc(Cl)cc2)=N1` (stereo not given), for which the Activity in assay [4] turned out to be 172%.
On Cannabinoid receptor 1 [1], `Cc1ccc(S(=O)(=O)/N=C(/N=C(\N)NC(=O)c2ccccc2)N2CC(c3ccccc3)C(c3ccc(Cl)cc3)=N2)cc1` (stereo not given) showed a Ki of 25 nM. Moreover, the IC50 on Cannabinoid receptor 1 [2] amounted to 59 nM. For the same molecule, in assay [3], the Activity worked out at 102%.
Take `N/C(=N\C(=N\S(=O)(=O)c1ccc2ccccc2c1)N1CC(c2ccccc2)C(c2ccc(Cl)cc2)=N1)NC(=O)c1ccccc1` (stereo not given): on Cannabinoid receptor 1 [1], the inhibition constant (Ki) was 8.1 nM. In addition, the half-maximal inhibitory concentration (IC50) on Cannabinoid receptor 1 [2] worked out at 66 nM. The Activity in assay [3] stood at 90%.
At Cannabinoid receptor 1 [1], `NC(N)=N/C(=N/S(=O)(=O)c1ccc(Cl)cc1)N1CC(c2ccccc2)C(c2ccc(Cl)cc2)=N1` (stereo not given) registered a Ki of 415 nM.
For the molecule `CC(=O)N/C(N)=N/C(=N/S(=O)(=O)c1ccc(C(C)(C)C)cc1)N1CC(c2ccccc2)C(c2ccc(Cl)cc2)=N1` (stereo not given), the IC50 at Cannabinoid receptor 1 [2] came out at 1.4 nM. In addition, the Activity in assay [3] was determined as 118%.
With `CN/C(=N\S(=O)(=O)c1ccc(Cl)cc1)N1C[C@H](c2ccccc2)C(c2ccc(Cl)cc2)=N1`, the Activity in assay [4] turned out to be 100%.
Consider `CC(=O)N/C(N)=N/C(=N/S(=O)(=O)c1ccc(I)cc1)N1CC(c2ccccc2)C(c2ccc(Cl)cc2)=N1` (stereo not given), for which the Ki on Cannabinoid receptor 1 [1] is 3.2 nM. The IC50 on Cannabinoid receptor 1 [2] was 2.8 nM. For the same molecule, in assay [3], the Activity is 121%.
Consider `CCN(CC)S(=O)(=O)/N=C(/N=C(\N)NC(C)=O)N1CC(c2ccccc2)C(c2ccc(Cl)cc2)=N1` (stereo not given), for which the inhibition constant (Ki) at Cannabinoid receptor 1 [1] was 1.3 nM. In addition, at Cannabinoid receptor 1 [2], the IC50 was 2.1 nM. In assay [3], the Activity amounted to 152%.
With `CCC(=O)N/C(N)=N/C(=N/S(=O)(=O)c1ccc(C(F)(F)F)cc1)N1CC(c2ccccc2)C(c2ccc(Cl)cc2)=N1` (stereo not given), at Cannabinoid receptor 1 [1], the inhibition constant Ki came to 3.3 nM. Besides, the half-inhibitory concentration (IC50) on Cannabinoid receptor 1 [2] turned out to be 5.5 nM. For the same molecule, in assay [3], the Activity worked out at 96%.
Take `CC(=O)N/C(N)=N/C(=N/S(=O)(=O)c1ccc(Br)cc1)N1CC(c2ccccc2)C(c2ccc(Cl)cc2)=N1` (stereo not given): the Ki at Cannabinoid receptor 1 [1] amounted to 0.6 nM. For the same molecule, the IC50 at Cannabinoid receptor 1 [2] came to 4.9 nM. For the same molecule, the Activity in assay [3] amounted to 94%.
For `COCCN/C(N)=N/C(=N/S(=O)(=O)c1ccc(Cl)cc1)N1CC(c2ccccc2)C(c2ccc(Cl)cc2)=N1` (stereo not given), the Activity in assay [4] came to 156%.
Regarding `CC(=O)N/C(N)=N/C(=N/S(=O)(=O)c1ccc(F)cc1)N1CC(c2ccccc2)C(c2ccc(Cl)cc2)=N1` (stereo not given), the affinity at Cannabinoid receptor 1 [1], expressed as Ki, was 2.3 nM. The half-inhibitory concentration (IC50) on Cannabinoid receptor 1 [2] worked out at 10 nM. Moreover, in assay [3], the Activity is 95%.
On Cannabinoid receptor 1 [1], `N/C(=N\C(=N\S(=O)(=O)c1ccc(Cl)cc1)N1CC(c2ccccc2)C(c2ccc(Cl)cc2)=N1)NCC12C[C@H]3C[C@@H](C1)C[C@@H](C2)C3` (stereo not given in full) had a Ki of more than 1000 nM.
For `N/C(=N\C(=N\S(=O)(=O)c1ccc(Cl)cc1)N1CC(c2ccccc2)C(c2ccc(Cl)cc2)=N1)N1CCOCC1` (stereo not given), the Activity in assay [4] was 127%.
Consider `CC(=O)N/C(N)=N/C(=N/S(=O)(=O)N1CCOCC1)N1CC(c2ccccc2)C(c2ccc(Cl)cc2)=N1` (stereo not given), for which, on Cannabinoid receptor 1 [1], affinity was put at a Ki of 2.3 nM. In addition, at Cannabinoid receptor 1 [2], the IC50 was found to be 2 nM. Besides, the Activity in assay [3] is 162%.
On the same counts, the results for `CC(=O)N/C(N)=N/C(=N/S(=O)(=O)c1ccccc1)N1CC(c2ccccc2)C(c2ccc(Cl)cc2)=N1` (stereo not given) are 6.8 nM, 21 nM and 93%.
Consider `COc1ccc(S(=O)(=O)/N=C(/N=C(\N)NC(=O)c2ccccc2)N2CC(c3ccccc3)C(c3ccc(Cl)cc3)=N2)cc1` (stereo not given), for which the affinity at Cannabinoid receptor 1 [1], expressed as Ki, was 8.5 nM. In addition, the IC50 on Cannabinoid receptor 1 [2] came out at 68 nM. Moreover, the Activity in assay [3] was 98%.
For the molecule `N/C(=N\C(=N\S(=O)(=O)c1ccc(OC(F)(F)F)cc1)N1CC(c2ccccc2)C(c2ccc(Cl)cc2)=N1)NC(=O)c1ccccc1` (stereo not given), the affinity at Cannabinoid receptor 1 [1], expressed as Ki, was 13 nM. Further, the IC50 at Cannabinoid receptor 1 [2] was determined as 86 nM. In addition, the Activity in assay [3] was 104%.
On the same counts, the results for `CCC(=O)N/C(N)=N/C(=N/S(=O)(=O)c1ccc(Cl)cc1)N1CC(c2ccccc2)C(c2ccc(Cl)cc2)=N1` (stereo not given) are 2.8 nM, 6 nM and 91%.
In the case of `CC(=O)N/C(N)=N/C(=N/S(=O)(=O)c1ccc(C)cc1)N1CC(c2ccccc2)C(c2ccc(Cl)cc2)=N1` (stereo not given), the Ki at Cannabinoid receptor 1 [1] came out at 8.6 nM. The concentration for half-maximal inhibition (IC50) at Cannabinoid receptor 1 [2] turned out to be 19 nM. The Activity in assay [3] was determined as 96%.
On the same counts, the results for `COc1ccc(S(=O)(=O)/N=C(/N=C(\N)NC(C)=O)N2CC(c3ccccc3)C(c3ccc(Cl)cc3)=N2)cc1` (stereo not given) are 13 nM, 16 nM and 98%.
On the same counts, the results for `N/C(=N\C(=N\S(=O)(=O)c1ccc(Cl)cc1)N1CC(c2ccccc2)C(c2ccc(Cl)cc2)=N1)NC(=O)c1ccccc1` (stereo not given) are 0.8 nM, 25 nM and 100%.
The molecule `CC(=O)N/C(N)=N/C(=N/S(=O)(=O)c1ccc(C(C)C)cc1)N1CC(c2ccccc2)C(c2ccc(Cl)cc2)=N1` (stereo not given) showed a Ki at Cannabinoid receptor 1 [1] of 3.7 nM. At Cannabinoid receptor 1 [2], the IC50 was 1.7 nM. For the same molecule, in assay [3], the Activity worked out at 119%.
On the same counts, the results for `N/C(=N\C(=N\S(=O)(=O)c1ccc(C(F)(F)F)cc1)N1CC(c2ccccc2)C(c2ccc(Cl)cc2)=N1)NC(=O)c1ccccc1` (stereo not given) are 3 nM, 6.1 nM and 101%.
